Assay results as given in article PMC4148168 (Journal of Medicinal Chemistry, 2014).

Experiments:
hCAII [1] = biological target: T1, hCAII (Homo sapiens, UniProt P00918); assay: hCAII activity assay; type: biochemical
hCAII [2] = biological target: T1, hCAII; conditions: aliphatic thiols; cited from earlier work
[3] = system: matrix metalloproteinases; conditions: cited from earlier work

In the case of `On1c(C(F)(F)F)cccc1=S` [6-CF3-1,2-HOPTO], the “inhibition of hCAII (in words)” value (hCAII [1]) is reported as “all activity is lost”.

For `Cc1cccn(O)c1=S` [3-CH3-1,2-HOPTO], the “fold increase in potency over unsubstituted 1,2-HOPTO” value (hCAII [1]; against hCAII) was greater than 10 fold.

With `Cc1cccc(=S)n1O` [6-CH3-1,2-HOPTO] the “fold decrease in potency relative to 1,2-HOPTO” value (hCAII [1]; against hCAII) was 5 fold.

With `Cc1cc(C)n(O)c(=S)c1` [4,6-CH3-1,2-HOPTO] the “fold decrease in potency/affinity relative to 4-CH3-1,2-HOPTO” value (hCAII [1]; against hCAII) was greater than 20 fold.

In the case of `OCCS` [2-mercaptoethanol], the “inhibitory activity against hCAII (in words)” value (hCAII [2]) is given as “lack inhibitory activity”.

With `Cc1ccnc(S)c1` [4-CH3-2MPyr, 2-Mercapto-4-methylpyridine] the “fold decrease in potency/affinity relative to 4-CH3-1,2-HOPTO” value (hCAII [1]; against hCAII) was roughly 200 fold.

For `[O-][n+]1ccccc1S` [1,2-HOPTO, 1-hydroxypyridine-2-(1H)-thione], the “fold more potent than 1,2-HOPO” value [3] is listed as roughly 50 fold and the “fold more potent than 1,2-HOPO” value (hCAII [1]; against hCAII) is listed as roughly 50 fold.
